What all share (assay type): in vivo
The test system of experiment [1] is Monochoria vaginalis. The experiment can be described thus: Test Example 11: herbicidal effect test by soil treatment in paddy field. The note with it: 120 g/10a active ingredient, 14 days after treatment. The method in brief: (§1)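 Seeds were sown 0-1 cm deep in puddled, fertilised paddy soil in Wagner pots and kept under about 3 cm of flooding in a greenhouse. Diluted emulsifiable concentrate was added dropwise right after sowing at 120 g a.i. per 10 are. Suppression (%) came from dry weight versus untreated pots after 14 days, two replicates.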

The subject of experiment [2] is Echinochloa crus-galli. The experiment is described as above. The note with it: 120 g/10a active ingredient, 14 days after treatment. The method in brief:
as §1

Experiment [3] deals with Lindernia pyxidaria. The experiment is described as above. The note with it: 120 g/10a active ingredient, 14 days after treatment. The method in brief: as §1
The test system of experiment [4] is Scirpus juncoides. The experiment is described as above. The note with it: 120 g/10a active ingredient, 14 days after treatment. In a few lines: as §1
In experiment [5] the test system is Amaranthus viridis. The experiment can be described thus: Test Example 14: herbicidal effect test by foliage treatment in upland field. The note with it: 7 days after sowing, 120 g/10a, 14 days after treatment. In a few lines:
(§2)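 Dose: 120 g a.i. per 10 are, sprayed in 100 L water per 10 are onto pots seven days post-sowing in alluvial soil. After 14 days, weed dry weight relative to untreated plots gave suppression rate (%); duplicate plots per concentration.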

In experiment [6] the test system is Echinochloa crus-galli. Described as above. The note with it: 7 days after sowing, 120 g/10a, 14 days after treatment. The method in brief:
as §2

Experiment [7] has as its system Monochoria vaginalis. Nature of the experiment: Test Example 12: herbicidal effect test by treatment during growing period in paddy field. The note with it: 120 g/10a; treatment seven days after sowing in flooded paddy pot; assessed 14 days after treatment. In a few lines: (§3)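 Puddled paddy soil in Wagner pots, 30 seeds per species sown 0-1 cm deep, flooded to about 3 cm in a greenhouse. Seven days after sowing, water-diluted emulsifiable concentrate was dripped in at 120 g active ingredient per 10 are. Suppression (%) from dry weight versus untreated at 14 days, two replicates.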

Experiment [8] has as its system Echinochloa crus-galli. Described as above. The note with it: 120 g/10a; treatment seven days after sowing in flooded paddy pot; assessed 14 days after treatment. In a few lines:
as §3

In experiment [9] the test system is Lindernia pyxidaria. The description is as above. The note with it: 120 g/10a; treatment seven days after sowing in flooded paddy pot; assessed 14 days after treatment. The method in brief: as §3
Experiment [10] has as its system Scirpus juncoides. The description is as above. The note with it: 120 g/10a; treatment seven days after sowing in flooded paddy pot; assessed 14 days after treatment. The method in brief:
as §3

Experiment [11] has as its system crabgrass. Nature of the experiment: Test Example 14: herbicidal effect test by foliage treatment in upland field. The note with it: 7 days after sowing, 120 g/10a, 14 days after treatment. The method in brief:
as §2

The subject of experiment [12] is Chenopodium album. Described as above. The note with it: 7 days after sowing, 120 g/10a, 14 days after treatment. In a few lines:
as §2

Experiment [13] concerns Amaranthus viridis. The experiment can be described thus: Test Example 13: herbicidal effect test by soil treatment in upland field. The note with it: 120 g/10a, 14 days after treatment. The method in brief: (§4)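 Pre-emergence soil treatment: alluvial soil pots (36 cm^2) sown with 20 seeds per weed species, sprayed one day later with water-diluted emulsifiable concentrate at 100 liter per 10 are, equal to 120 g active ingredient per 10 are. Two replicates; weed suppression (%) from dry weight versus untreated plots at 14 days.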

Experiment [14] has as its system crabgrass. Described as above. The note with it: 120 g/10a, 14 days after treatment. In a few lines:
as §4

Experiment [15] deals with Echinochloa crus-galli. The description is as above. The note with it: 120 g/10a, 14 days after treatment. The method in brief:
as §4

For experiment [16], the system named is Chenopodium album. The experiment is described as above. The note with it: 120 g/10a, 14 days after treatment. The method in brief: as §4

In the case of `CC(C)N(C(=O)n1cnn(S(C)(=O)=O)c1=O)c1ccc(F)cc1F` [Compound 11-12], the “Weed suppression rate (%) Monochoria vaginalis” value with Monochoria vaginalis [1] turned out to be 100%; in the experiment on Monochoria vaginalis [7] it was 90%. Besides, the “Weed suppression rate (%) Echinochloa crus-galli” value in the experiment with Echinochloa crus-galli [2] and in the experiment on Echinochloa crus-galli [8] was 100% each time. The “Weed suppression rate (%) Lindemia pyxidaria” value with Lindernia pyxidaria [3] and in the experiment on Lindernia pyxidaria [9] was 100% in each case. Also, the “Weed suppression rate (%) Scirpus juncoides” value in the experiment on Scirpus juncoides [4] is reported as 100%; with Scirpus juncoides [10], 90%. Also, the “herbicidal effect, Amaranthus viridis” value came out at 80% in the experiment with Amaranthus viridis [5] and 100% in the experiment with Amaranthus viridis [13]. The entries for the “herbicidal effect, Echinochloa crus-galli” value in the experiment with Echinochloa crus-galli [6] and in the experiment with Echinochloa crus-galli [15] were 90% and 100%, respectively. Moreover, the figures for the “herbicidal effect, Crabgrass” value in the experiment with crabgrass [11] and in the experiment on crabgrass [14] were 90% and 100%, respectively. The “herbicidal effect, Chenopodium album” value with Chenopodium album [12] and in the experiment with Chenopodium album [16] was 90% in each case.
As for `CC(C)N(C(=O)n1cnn(S(C)(=O)=O)c1=O)c1c(F)cccc1F` [Compound 11-14], the “Weed suppression rate (%) Monochoria vaginalis” value with Monochoria vaginalis [1] and in the experiment on Monochoria vaginalis [7] was 80% throughout. The “Weed suppression rate (%) Echinochloa crus-galli” value with Echinochloa crus-galli [2] and with Echinochloa crus-galli [8] was 100% each time. In addition, the “Weed suppression rate (%) Lindemia pyxidaria” value is 100% in the experiment on Lindernia pyxidaria [3] and 80% in the experiment with Lindernia pyxidaria [9]. The “Weed suppression rate (%) Scirpus juncoides” value with Scirpus juncoides [4] is listed as 90%; in the experiment with Scirpus juncoides [10] it was 100%. The “herbicidal effect, Amaranthus viridis” value in the experiment on Amaranthus viridis [5] was 30%; with Amaranthus viridis [13], 70%. The “herbicidal effect, Echinochloa crus-galli” value in the experiment with Echinochloa crus-galli [6] and with Echinochloa crus-galli [15] was 100% in each case. For the same molecule, the “herbicidal effect, Crabgrass” value in the experiment with crabgrass [11] and in the experiment on crabgrass [14] was 100% throughout. The “herbicidal effect, Chenopodium album” value in the experiment with Chenopodium album [12] came out at 30%; with Chenopodium album [16], 60%.
As for `CC(C)N(C(=O)n1cnn(S(C)(=O)=O)c1=O)c1c(F)cc(F)cc1F` [Compound 11-16], the “Weed suppression rate (%) Monochoria vaginalis” value is given as 90% with Monochoria vaginalis [1] and 100% in the experiment on Monochoria vaginalis [7]. The “Weed suppression rate (%) Echinochloa crus-galli” value in the experiment with Echinochloa crus-galli [2] and in the experiment on Echinochloa crus-galli [8] was 100% throughout. For the same molecule, the “Weed suppression rate (%) Lindemia pyxidaria” value in the experiment with Lindernia pyxidaria [3] amounted to 100%; in the experiment on Lindernia pyxidaria [9], 90%. The “Weed suppression rate (%) Scirpus juncoides” value in the experiment on Scirpus juncoides [4] amounted to 90%; in the experiment with Scirpus juncoides [10], 100%. For the same molecule, the “herbicidal effect, Amaranthus viridis” value with Amaranthus viridis [5] came to 30%; with Amaranthus viridis [13], 100%. The “herbicidal effect, Echinochloa crus-galli” value with Echinochloa crus-galli [6] and with Echinochloa crus-galli [15] was 100% each time. Moreover, the “herbicidal effect, Crabgrass” value in the experiment on crabgrass [11] and in the experiment on crabgrass [14] was 100% throughout. Also, the “herbicidal effect, Chenopodium album” value in the experiment on Chenopodium album [12] and with Chenopodium album [16] was 70% throughout.
For `CC(C)N(C(=O)n1cnn(S(C)(=O)=O)c1=O)c1ccc(F)cc1Cl` [Compound 11-19], the “Weed suppression rate (%) Monochoria vaginalis” value in the experiment with Monochoria vaginalis [1] and in the experiment with Monochoria vaginalis [7] was 80% each time. The “Weed suppression rate (%) Echinochloa crus-galli” value in the experiment on Echinochloa crus-galli [2] and with Echinochloa crus-galli [8] was 90% in each case. Moreover, the “Weed suppression rate (%) Lindemia pyxidaria” value in the experiment with Lindernia pyxidaria [3] and in the experiment with Lindernia pyxidaria [9] was 80% each time. The “Weed suppression rate (%) Scirpus juncoides” value with Scirpus juncoides [4] and in the experiment with Scirpus juncoides [10] was 90% in each case. Also, the “herbicidal effect, Amaranthus viridis” value in the experiment with Amaranthus viridis [5] and in the experiment with Amaranthus viridis [13] was 90% each time. Moreover, the “herbicidal effect, Echinochloa crus-galli” value with Echinochloa crus-galli [6] and with Echinochloa crus-galli [15] was 80% throughout. Further, the “herbicidal effect, Crabgrass” value in the experiment with crabgrass [11] and in the experiment with crabgrass [14] was 90% each time. In addition, the “herbicidal effect, Chenopodium album” value in the experiment with Chenopodium album [12] and in the experiment with Chenopodium album [16] was 80% throughout.
For the molecule `Cc1ccc(N(C(=O)n2cnn(S(C)(=O)=O)c2=O)C(C)C)c(F)c1` [Compound 11-26], the “Weed suppression rate (%) Monochoria vaginalis” value in the experiment with Monochoria vaginalis [1] and in the experiment on Monochoria vaginalis [7] was 80% each time. For the same molecule, the “Weed suppression rate (%) Echinochloa crus-galli” value with Echinochloa crus-galli [2] and in the experiment on Echinochloa crus-galli [8] was 90% in each case. Besides, the “Weed suppression rate (%) Lindemia pyxidaria” value in the experiment with Lindernia pyxidaria [3] and with Lindernia pyxidaria [9] was 80% throughout. The “Weed suppression rate (%) Scirpus juncoides” value with Scirpus juncoides [4] and in the experiment on Scirpus juncoides [10] was 90% in each case. Further, the “herbicidal effect, Amaranthus viridis” value in the experiment on Amaranthus viridis [5] and with Amaranthus viridis [13] was 90% throughout. In addition, the “herbicidal effect, Echinochloa crus-galli” value in the experiment with Echinochloa crus-galli [6] and in the experiment with Echinochloa crus-galli [15] was 80% throughout. Further, the “herbicidal effect, Crabgrass” value with crabgrass [11] and in the experiment on crabgrass [14] was 90% throughout. Also, the “herbicidal effect, Chenopodium album” value in the experiment on Chenopodium album [12] and in the experiment with Chenopodium album [16] was 80% in each case.
For the molecule `CC(C)N(C(=O)n1cnn(S(C)(=O)=O)c1=O)c1ccc(Cl)cn1` [Compound 11-38], the results for the “Weed suppression rate (%) Monochoria vaginalis” value in the experiment on Monochoria vaginalis [1] and in the experiment on Monochoria vaginalis [7] were 70% and 80%, respectively. Moreover, the “Weed suppression rate (%) Echinochloa crus-galli” value in the experiment on Echinochloa crus-galli [2] and with Echinochloa crus-galli [8] was 100% each time. Also, the “Weed suppression rate (%) Lindemia pyxidaria” value in the experiment on Lindernia pyxidaria [3] is 80%; in the experiment with Lindernia pyxidaria [9] it was 90%. Further, the “Weed suppression rate (%) Scirpus juncoides” value in the experiment on Scirpus juncoides [4] was 70%; in the experiment on Scirpus juncoides [10], 90%. Moreover, the “herbicidal effect, Amaranthus viridis” value with Amaranthus viridis [5] and in the experiment on Amaranthus viridis [13] was 0% each time. The “herbicidal effect, Echinochloa crus-galli” value in the experiment on Echinochloa crus-galli [6] and in the experiment with Echinochloa crus-galli [15] was 90% each time. In addition, the “herbicidal effect, Crabgrass” value with crabgrass [11] and in the experiment on crabgrass [14] was 90% in each case. The “herbicidal effect, Chenopodium album” value is 0% with Chenopodium album [12] and 40% with Chenopodium album [16].
For the molecule `CCS(=O)(=O)n1ncn(C(=O)N(c2ccc(F)cc2F)C(C)C)c1=O` [Compound 11-46], the entries for the “Weed suppression rate (%) Monochoria vaginalis” value in the experiment on Monochoria vaginalis [1] and in the experiment on Monochoria vaginalis [7] were 100% and 90%, respectively. In addition, the “Weed suppression rate (%) Echinochloa crus-galli” value with Echinochloa crus-galli [2] and with Echinochloa crus-galli [8] was 100% each time. The “Weed suppression rate (%) Lindemia pyxidaria” value in the experiment with Lindernia pyxidaria [3] and in the experiment on Lindernia pyxidaria [9] was 100% each time. In addition, the “Weed suppression rate (%) Scirpus juncoides” value in the experiment on Scirpus juncoides [4] and in the experiment on Scirpus juncoides [10] was 90% throughout. Moreover, the “herbicidal effect, Amaranthus viridis” value in the experiment on Amaranthus viridis [5] came out at 60%; with Amaranthus viridis [13], 100%. Besides, the “herbicidal effect, Echinochloa crus-galli” value in the experiment with Echinochloa crus-galli [6] and in the experiment on Echinochloa crus-galli [15] was 100% in each case. Also, the “herbicidal effect, Crabgrass” value in the experiment on crabgrass [11] and in the experiment on crabgrass [14] was 100% in each case. The results for the “herbicidal effect, Chenopodium album” value with Chenopodium album [12] and with Chenopodium album [16] were 90% and 100%, respectively.
In the case of `CC(C)N(C(=O)n1cnn(S(=O)(=O)C(C)C)c1=O)c1ccccc1` [Compound 11-48], the figures for the “Weed suppression rate (%) Monochoria vaginalis” value with Monochoria vaginalis [1] and with Monochoria vaginalis [7] were 80% and 90%, respectively. Besides, the “Weed suppression rate (%) Echinochloa crus-galli” value in the experiment on Echinochloa crus-galli [2] and in the experiment on Echinochloa crus-galli [8] was 90% throughout. The “Weed suppression rate (%) Lindemia pyxidaria” value is 80% in the experiment with Lindernia pyxidaria [3] and 70% in the experiment on Lindernia pyxidaria [9]. Also, the entries for the “Weed suppression rate (%) Scirpus juncoides” value with Scirpus juncoides [4] and in the experiment with Scirpus juncoides [10] were 90% and 70%, respectively. Further, the “herbicidal effect, Amaranthus viridis” value in the experiment on Amaranthus viridis [5] was determined as 40%; with Amaranthus viridis [13] it was 90%. Further, the “herbicidal effect, Echinochloa crus-galli” value in the experiment on Echinochloa crus-galli [6] was found to be 90%; in the experiment on Echinochloa crus-galli [15], 80%. Moreover, the entries for the “herbicidal effect, Crabgrass” value with crabgrass [11] and with crabgrass [14] were 100% and 90%, respectively. The “herbicidal effect, Chenopodium album” value in the experiment with Chenopodium album [12] is listed as 70%; in the experiment with Chenopodium album [16] it was 80%.

Source of the values: patent publication US11076595B2, “1-(n,n-disubstituted carbamoyl) 4-(substituted sulfonyl)triazolin-5-one derivative, 4-(n,n-disubstituted carbamoyl) 1-(substituted sulfonyl)triazolin-5-one derivative, and herbicide containing said derivative as active ingredient” (HOKKO CHEMICAL INDUSTRY CO., LTD., priority 2017, dated 2021).
